tested on: not given; assay: not given; conditions: not given

First: COc1ccc(-c2n[nH]c3c2Cc2ccccc2-3)cc1 [Example 6, 3-(4-methoxyphenyl)-1,4-dihydroindeno[1,2-c]pyrazole]
Second: Cc1ccc(-c2n[nH]c3c2Cc2ccccc2-3)cc1 [Example 7, 3-(p-tolyl)-1,4-dihydroindeno[1,2-c]pyrazole]
The melting point of the first is lower: 247 °C for the first, 267 to 269 °C for the second.

First: c1ccc2c(c1)Cc1c(-c3ccsc3)n[nH]c1-2 [Example 29, 3-(3-thienyl)-1,4-dihydroindeno[1,2-c]pyrazole]
Second: c1cncc(-c2n[nH]c3c2Cc2ccccc2-3)c1 [Example 1, 3-(3-Pyridyl)-1,4-dihydroindeno[1,2-c]pyrazole]
The melting point of the first is lower: 219 to 220 °C for the first, 223 to 224 °C for the second.

Compared with `c1coc(-c2n[nH]c3c2Cc2ccccc2-3)c1` [Example 9, 3-(2-furyl)-1,4-dihydroindeno[1,2-c]pyrazole], `COc1cccc(-c2n[nH]c3c2Cc2ccccc2-3)c1` [Example 5, 3-(3-methoxyphenyl)-1,4-dihydroindeno[1,2-c]pyrazole] is lower in melting point: 195 to 197 °C for the first, 172 to 174 °C for the second.

First: COc1ccc2c(c1)Cc1c(-c3cccs3)n[nH]c1-2 [Example 8, 6-methoxy-3-(2-thienyl)-1,4-dihydroindeno[1,2-c]pyrazole]
Second: c1csc(-c2n[nH]c3c2CCc2ccccc2-3)c1 [Example 3, 3-(2-Thienyl)-4,5-dihydro-1H-benz[g]indazole]
The melting point of the first is higher: 212 to 214 °C for the first, 206 to 208 °C for the second.

molecular target: T1, KDR tyrosine kinase (Homo sapiens, UniProt P35968); assay: KDR in vitro ELISA; assay type: biochemical; conditions: ATP 5 μM
T1 construct: KDR intra-cellular domain (aa789-1354); poly-His6 (N); made in house; host or cells: SF-9 insect cells, recombinant baculovirus (pVL1393)
T1 sequence (P35968 789-1354): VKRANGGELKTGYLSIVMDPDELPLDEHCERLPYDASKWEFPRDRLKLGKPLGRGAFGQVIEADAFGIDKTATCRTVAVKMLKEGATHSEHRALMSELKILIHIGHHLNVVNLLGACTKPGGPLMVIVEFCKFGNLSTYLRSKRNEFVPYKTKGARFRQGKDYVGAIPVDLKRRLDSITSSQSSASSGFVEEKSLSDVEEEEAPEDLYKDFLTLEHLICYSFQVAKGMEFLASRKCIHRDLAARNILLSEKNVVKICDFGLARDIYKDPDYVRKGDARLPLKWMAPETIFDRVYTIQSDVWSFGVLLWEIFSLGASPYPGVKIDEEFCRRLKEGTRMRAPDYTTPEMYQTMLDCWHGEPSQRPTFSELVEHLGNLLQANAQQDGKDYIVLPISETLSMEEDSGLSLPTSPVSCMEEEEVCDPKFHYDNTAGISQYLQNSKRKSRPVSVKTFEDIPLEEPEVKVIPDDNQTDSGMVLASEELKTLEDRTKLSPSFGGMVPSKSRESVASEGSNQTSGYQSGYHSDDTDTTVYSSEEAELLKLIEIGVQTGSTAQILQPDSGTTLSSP
Description: The following procedure was used to assay the inhibitory effect of compounds of this invention on KDR tyrosine kinase activity:
Dilute PGT stock (50 mg/ml, frozen) in PBS to a 250 μg/ml. […] Add 125 μl PBS to blank wells. Cover with sealing tape and incubate overnight 37° C. Wash 1× with 250 μl washing buffer and dry for about 2 hrs in 37° C. dry incubator.
Prepare inhibitor solutions at a 4× concentration in 20% DMSO in water.
Prepare enzyme solution so that desired units are in 50 μl, e.g. for KDR make to 1 ng/μl for a total of 50 ng per well in the reactions. Store on ice.
Make 4× ATP solution to 20 μM from 100 mM stock in water. Store on ice.
Add 50 μl of the enzyme solution per well.
Add 25 μl 4× ATP for inhibitor assay.
Incubate for 10 minutes at room temperature.
Stop reaction by adding 50 μl 0.05N HCl per well.
Dilute 1 mg/ml aliquot of PY20-HRP (Pierce) antibody to 50 ng/ml in 0.1% BSA in PBS by a 2 step dilution (100×, then 200×).
Add 100 μl Ab per well. Incubate 1 hr at room temp. Incubate 1 hr at 4C.
Prepare TMB substrate and add 100 μl per well.
Monitor OD at 650 nm until 0.6 is reached.
Stop with 1M Phosphoric acid. Shake on plate reader.

`Cc1c2c(nn1-c1ccccc1)-c1ccccc1C2=O` and `C1=NC(n2nc(-c3ccccc3)cc2-c2ccccc2)NC1` (centres unmarked) cannot be ordered by IC50: > 100 µM for the first, > 100 µM for the second.

tested on: Human umbilical vein endothelial cells (HUVEC); assay: HUVEC mitogenesis assay; assay type: cell-based; conditions: 50 ng/ml VEGF, tritiated thymidine, read-out: VEGF-Stimulated Mitogenesis IC50
Description: Human umbilical vein endothelial cells (HUVEC) were cultured in EGM-Complete Media (endothelial growth media supplemented with 10% FBS, hydrocortisone, epidermal growth factor and bovine brain extract as per the supplier's directions). Cells, media and supplements were purchased from Clonetics (San Diego, Calif.). The HUVEC Mitogenesis Assay was used to measure inhibition of mitogenesis induced by VEGF, FGF or Complete Media. Cells were harvested by trypsinization, washed once and suspended in Complete Media (CM) at a concentration of 5,000 cells/0.15 ml. Cells were seeded into 96-well plates at 5,000 cells/well and incubated at 37 C for 24 hours. Cells were washed once with serum-free media (SFM) and incubated under serum-free conditions for 24 hours. Non-serum starved control wells were cultured with CM during this period. Test compounds were prepared as 10 mM stock solutions in DMSO, diluted in SFM and added to wells over a concentration range (0.005-50 μM final concentration). Cells were incubated for 1 hour prior to addition of 50 ng/ml VEGF or FGF (R & D Systems, Minneapolis, Minn.). Complete media stimulated wells received the test compound and stimulus simultaneously. […] Plates were harvested onto filter mats with a Tomtec Harvester and counted with a Betaplate liquid scintillation counter (Wallac).

Work on `c1csc(-c2n[nH]c3c2Cc2ccccc2-3)c1` yielded an IC50 of 2000 nM.

From patent publication US6451834B1, “Indeno[1,2-c]-, naphtho[1,2-c]- and benzo[6,7]cyclohepta[1,2-c]pyrazole derivatives” (BASF Aktiengesellschaft, priority 1997, dated 2002)
